# Laboratory results: the supplement of paper PMC10307832
# Legend:
# Test in all cases: relative viability (nuclei count vs DMSO), 5 days (fraction); higher = more cells survive
# [1] = compound: Cc1ccc(C(=O)Nc2cccc(C(F)(F)F)c2)cc1Nc1cncc(C(N)=O)c1 [ALW-II-49-7] + NC(=O)Nc1cc(-c2cccc(F)c2)sc1C(=O)N[C@H]1CCCNC1 [AZD7762] (partner 0.2 µM)
# Procedure, shortened: (§1)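 Medians of duplicate plates are given as relative viability. That measure is the nuclei count in treated wells divided by the count in vehicle wells. Counts were taken on 4× images of lung cancer cell lines in 1536-well plates, 5 days after pin-tool dosing the day after seeding with one drug alone or a fixed anchor-drug dose plus five library-drug doses (not always all listed) in √10 steps.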
# [2] = compound: Cc1ccc(C(=O)Nc2cccc(C(F)(F)F)c2)cc1Nc1cncc(C(N)=O)c1 [ALW-II-49-7] + CC(=O)c1c(C)c2cnc(Nc3ccc(N4CCNCC4)cn3)nc2n(C2CCCC2)c1=O [Palbociclib] (partner 0.5 µM)
# Procedure, shortened: as §1
# [3] = compound: C1CC1C(=O)NC2=NNC3=C2C=CC(=C3)C4=CC(=CC=C4)C(=O)NC5CC5 [XMD13-2] + CS(=O)(=O)CCNCc1ccc(-c2ccc3ncnc(Nc4ccc(OCc5cccc(F)c5)c(Cl)c4)c3c2)o1 [Lapatinib] (partner 2 µM)
# Procedure, shortened: as §1
# [4] = compound: C1CC1C(=O)NC2=NNC3=C2C=CC(=C3)C4=CC(=CC=C4)C(=O)NC5CC5 [XMD13-2] + N=C(N)NC(=N)NCCc1ccccc1 [Phenformin] (partner 250 µM)
# Procedure, shortened: as §1
Cell Line,relative viability ([1]; first compound 0.08 µM),relative viability ([1]; first compound 0.253 µM),relative viability ([1]; first compound 0.8 µM),relative viability ([1]; first compound 2.53 µM),relative viability ([1]; first compound 8 µM),relative viability ([2]; first compound 0.08 µM),relative viability ([2]; first compound 0.253 µM),relative viability ([2]; first compound 0.8 µM),relative viability ([2]; first compound 2.53 µM),relative viability ([2]; first compound 8 µM),relative viability ([3]; first compound 0.05 µM),relative viability ([3]; first compound 0.1581 µM),relative viability ([3]; first compound 0.5 µM),relative viability ([3]; first compound 1.581 µM),relative viability ([3]; first compound 5 µM),relative viability ([4]; first compound 0.05 µM),relative viability ([4]; first compound 0.1581 µM),relative viability ([4]; first compound 0.5 µM),relative viability ([4]; first compound 1.581 µM),relative viability ([4]; first compound 5 µM)
HCC-15,1.22,1.14,1,1.39,1.25,0.729,0.722,0.704,0.712,0.68,0.983,0.761,0.918,0.801,0.519,0.609,0.523,0.546,0.456,0.407
CAL-12T,0.5,0.641,0.744,0.349,0.588,0.381,0.423,0.46,0.411,0.365,0.627,,0.795,0.537,0.46,0.575,0.538,0.61,0.538,0.665
NCI-H727,0.495,0.68,0.611,0.716,0.591,0.604,0.63,0.676,0.555,0.577,0.836,0.844,1.06,1.01,0.949,0.619,0.518,0.556,0.584,0.525
ABC-1,0.914,0.563,0.915,,0.668,0.48,0.647,0.59,0.665,0.711,1.42,1.29,1.12,1.2,1.23,0.219,0.24,0.242,0.267,0.26
NCI-H1993,0.981,0.674,0.722,0.812,0.622,0.717,0.717,0.571,0.705,0.684,0.904,0.87,0.931,0.765,0.706,0.456,0.493,0.55,0.553,0.566
NCI-H2085,0.987,1.06,0.988,1.06,0.834,0.441,0.448,0.466,0.432,0.454,0.821,0.776,0.87,0.809,0.699,0.825,0.715,0.759,0.661,0.802
NCI-H1651,0.465,0.466,0.474,0.397,0.317,0.522,0.476,0.49,0.439,0.444,1.09,0.78,0.906,1.09,0.751,0.382,0.323,0.392,0.37,0.343
RERF-LC-KJ,1.15,0.995,0.827,0.975,0.956,1.04,1.07,1.04,0.998,1.08,0.912,0.841,0.858,0.816,0.78,0.5,0.435,0.446,0.407,0.396
NCI-H1755,0.543,0.497,0.379,0.432,0.382,0.439,0.498,0.41,0.415,0.431,1.08,1.09,1.07,1,1.09,0.643,0.666,0.596,0.642,0.677
NCI-H2126,0.981,1.05,0.913,1,0.984,0.367,0.332,0.337,0.365,0.374,0.728,0.767,0.792,0.706,0.765,0.531,0.474,0.522,0.522,0.553
EPLC-272H,0.169,0.251,0.278,0.248,0.198,0.273,0.319,0.317,0.346,0.343,1.09,0.897,1.01,0.817,0.911,0.322,0.262,0.344,0.368,0.266
NCI-H1975,0.743,0.815,0.673,,0.589,0.608,0.58,0.459,0.59,0.44,0.968,0.922,0.991,1.01,1.01,0.436,0.395,0.407,0.42,0.401
NCI-H3122,1.05,0.853,1.06,1.05,1.03,0.223,0.212,0.191,0.397,0.227,1.04,1.03,0.99,0.982,0.848,0.612,0.37,0.4,0.374,0.353
BEN,0.723,0.769,0.666,0.799,0.765,0.468,0.452,0.482,0.439,0.481,0.954,0.829,0.802,0.597,0.621,0.28,0.263,0.254,0.26,0.311
NCI-H1915,0.675,0.678,0.688,0.636,0.477,0.618,0.595,0.543,0.453,0.414,1.07,1.01,1,1,0.94,0.381,0.362,0.367,0.371,0.379
NCI-H650,1.02,0.967,1.05,0.866,0.678,0.277,0.309,0.351,0.327,0.236,0.993,1.06,0.94,0.752,0.829,0.438,0.544,0.534,0.425,0.488
